Measured values published in US10125111B2, “Benzofuran compounds for the treatment of hepatitis C” (BRISTOL-MYERS SQUIBB COMPANY, priority 2015, dated 2018).
Read-outs that look alike come from different tables or passages of the source.

System: genotype 1b (Con-1) HCV replicon
Assay: HCV Replicon Luciferase Assay
Type: cell-based
Settings: Hepatitis C virus, 72 h, Huh-7 genotype 1b replicon, Renilla luciferase, 3 days incubation
Procedure: The cell lines used to evaluate compounds consist of a human hepatocyte derived cell line (Huh-7) that constitutively expresses a genotype 1b (Con-1) HCV replicon or a genotype 1b (Con-1) HCV replicon with an asparagine replacing the cysteine at amino acid 316, or a genotype 2a (JFH-1) replicon, containing a Renilla luciferase reporter gene. These cells were maintained in Dulbecco's modified Eagle medium (DMEM) containing 10% FBS, 100 U/mL penicillin/streptomycin and 1.0 mg/mL G418.
To evaluate compound efficacy, titrated compounds were transferred to sterile 384-well tissue culture treated plates, and the plates were seeded with HCV replicon cells (50 μL at a density of 2.4×10^3 cells/well) in DMEM containing 4% FBS (final DMSO concentration at 0.5%). After 3 days incubation at 37° C., cells were analyzed for Renilla Luciferase activity using the EnduRen substrate (Promega cat #E6485) according to the manufacturer's directions. Briefly, the EnduRen substrate was diluted in DMEM and then added to the plates to a final concentration of 7.5 μM. The plates were incubated for at least 1 h at 37° C. then read on a Viewlux Imager (PerkinElmer) using a luminescence program. The 50% effective concentration (EC50) was calculated using the four-parameter logistic Formula noted above.
Compound EC50 data is expressed as A: <100 nM; B=100-1000 nM; C>1000 nM).

Row | SMILES | EC50 (read-out: EC50 1b (class)) [µM] | EC50 (read-out: EC50 (uM) 1b) [µM]
1 | CNC(=O)c1c(-c2ccc(F)cc2)oc2cc(N(CCF)S(C)(=O)=O)c(-c3cccc(C(=O)N4CCC(O)C4)c3)cc12 (stereo not drawn) [Compound 3039] | > 1 | 1.61
2 | CNC(=O)c1c(-c2ccc(F)cc2)oc2cc(N(CCF)S(C)(=O)=O)c(-c3cccc(C(=O)N4CCC(c5cccc(Cl)c5)C4)c3)cc12 (stereo not drawn) [Compound 3040] | < 0.1 | 0.0413
3 | CNC(=O)c1c(-c2ccc(F)cc2)oc2cc(N(CCF)S(C)(=O)=O)c(-c3cccc(C(=O)N4CCC[C@H]4C(=O)OC)c3)cc12 [Compound 3041] | 0.1 to 1 | –
4 | CNC(=O)c1c(-c2ccc(F)cc2)oc2cc(N(CCF)S(C)(=O)=O)c(-c3cccc(C(=O)N4CC(NC(=O)OC(C)(C)C)C4)c3)cc12 [Compound 3042] | 0.1 to 1 | 0.138
5 | CCCC1CN(C(=O)c2ccccc2)CCN1C(=O)c1cccc(-c2cc3c(C(=O)NC)c(-c4ccc(F)cc4)oc3cc2N(CCF)S(C)(=O)=O)c1 (stereo not drawn) [Compound 3043] | < 0.1 | –
6 | CNC(=O)c1c(-c2ccc(F)cc2)oc2cc(N(CCF)S(C)(=O)=O)c(-c3cccc(C(=O)N4CCN(C(=O)OC(C)(C)C)CC4(C)C)c3)cc12 [Compound 3044] | < 0.1 | –
7 | CNC(=O)c1c(-c2ccc(F)cc2)oc2cc(N(CCCF)S(C)(=O)=O)c(-c3cccc(C(=O)O)c3)cc12 [Compound 4002] | > 1 | –
8 | CNC(=O)c1c(-c2ccc(F)cc2)oc2cc(N(CCCF)S(C)(=O)=O)c(-c3cccc(C(=O)NC(C)C(F)(F)F)c3)cc12 (stereo not drawn) [Compound 4003] | < 0.1 | 0.0093
9 | CNC(=O)c1c(-c2ccc(F)cc2)oc2cc(N(CCCF)S(C)(=O)=O)c(-c3cccc(C(=O)NC(CF)(CF)CF)c3)cc12 [Compound 4004] | < 0.1 | –
10 | CNC(=O)c1c(-c2ccc(F)cc2)oc2cc(N(CCCF)S(C)(=O)=O)c(-c3cccc(C(=O)NC(C)(C)C(F)(F)F)c3)cc12 [Compound 4005] | < 0.1 | –
11 | [2H]C([2H])([2H])C(NC(=O)c1cccc(-c2cc3c(C(=O)NC)c(-c4ccc(F)cc4)oc3cc2N(CCCF)S(C)(=O)=O)c1)(C([2H])([2H])[2H])C([2H])([2H])[2H] [Compound 4006] | < 0.1 | –
12 | CNC(=O)c1c(-c2ccc(F)cc2)oc2cc(N(CCCF)S(C)(=O)=O)c(-c3cccc(C(=O)NCC(F)(F)C(F)(F)F)c3)cc12 [Compound 4007] | < 0.1 | 0.0053
13 | CNC(=O)c1c(-c2ccc(F)cc2)oc2cc(N(CCCF)S(C)(=O)=O)c(-c3cccc(C(=O)NC(C)(C)CF)c3)cc12 [Compound 4008] | < 0.1 | –
14 | CNC(=O)c1c(-c2ccc(F)cc2)oc2cc(N(CCCF)S(C)(=O)=O)c(-c3cccc(C(=O)NCC(C)(C)C)c3)cc12 [Compound 4009] | < 0.1 | –
15 | CNC(=O)c1c(-c2ccc(F)cc2)oc2cc(N(CCCF)S(C)(=O)=O)c(-c3cccc(C(=O)NCC(F)(F)F)c3)cc12 [Compound 4010] | < 0.1 | –
16 | CNC(=O)c1c(-c2ccc(F)cc2)oc2cc(N(CCCF)S(C)(=O)=O)c(-c3cccc(C(=O)NC(C)(C)C)c3)cc12 [Compound 4011] | < 0.1 | –
17 | C#CC(C)(C)NC(=O)c1cccc(-c2cc3c(C(=O)NC)c(-c4ccc(F)cc4)oc3cc2N(CCCF)S(C)(=O)=O)c1 [Compound 4012] | < 0.1 | 0.008
18 | CNC(=O)c1c(-c2ccc(F)cc2)oc2cc(N(CCCF)S(C)(=O)=O)c(-c3cccc(C(=O)NC(C)(C)C(=O)OC)c3)cc12 [Compound 4013] | < 0.1 | –
19 | CNC(=O)c1c(-c2ccc(F)cc2)oc2cc(N(CCCF)S(C)(=O)=O)c(-c3cccc(C(=O)NC4(C#N)CC4)c3)cc12 [Compound 4014] | < 0.1 | –
20 | CNC(=O)c1c(-c2ccc(F)cc2)oc2cc(N(CCCF)S(C)(=O)=O)c(-c3cccc(C(=O)NCC(C)C)c3)cc12 [Compound 4015] | < 0.1 | 0.0075
21 | CNC(=O)c1c(-c2ccc(F)cc2)oc2cc(N(CCCF)S(C)(=O)=O)c(-c3cccc(C(=O)NC4(C)CC4)c3)cc12 [Compound 4016] | < 0.1 | –
22 | CNC(=O)c1c(-c2ccc(F)cc2)oc2cc(N(CCCF)S(C)(=O)=O)c(-c3cccc(C(=O)NCC(C)(C)CO)c3)cc12 [Compound 4017] | < 0.1 | –
23 | CNC(=O)c1c(-c2ccc(F)cc2)oc2cc(N(CCCF)S(C)(=O)=O)c(-c3cccc(C(=O)NC(C)(C)CO)c3)cc12 [Compound 4018] | < 0.1 | –

Row | SMILES | EC50 (read-out: EC50 1b (class)) [µM] | EC50 (read-out: EC50 (uM) 1b) [µM]
24 | CNC(=O)c1c(-c2ccc(F)cc2)oc2cc(N(CCCF)S(C)(=O)=O)c(-c3cccc(C(=O)NCC(C)(F)F)c3)cc12 [Compound 4019] | < 0.1 | 0.0098
25 | CNC(=O)c1c(-c2ccc(F)cc2)oc2cc(N(CCCF)S(C)(=O)=O)c(-c3cccc(C(=O)NCC(F)F)c3)cc12 [Compound 4020] | < 0.1 | –
26 | CNC(=O)c1c(-c2ccc(F)cc2)oc2cc(N(CCCF)S(C)(=O)=O)c(-c3cccc(C(=O)N[C@@H](C)C(F)(F)F)c3)cc12 [Compound 4021] | < 0.1 | –
27 | CNC(=O)c1c(-c2ccc(F)cc2)oc2cc(N(CCCF)S(C)(=O)=O)c(-c3cccc(C(=O)NC4(C)CCC4)c3)cc12 [Compound 4022] | < 0.1 | 0.0077
28 | CNC(=O)c1c(-c2ccc(F)cc2)oc2cc(N(CCCF)S(C)(=O)=O)c(-c3cccc(C(=O)NC4(C(F)(F)F)CC4)c3)cc12 [Compound 4023] | < 0.1 | –
29 | CNC(=O)c1c(-c2ccc(F)cc2)oc2cc(N(CCCF)S(C)(=O)=O)c(-c3cccc(C(=O)NC(C)(C)C#N)c3)cc12 [Compound 4024] | < 0.1 | –
30 | CNC(=O)c1c(-c2ccc(F)cc2)oc2cc(N(CCCF)S(C)(=O)=O)c(-c3cccc(C(=O)NC(C4CC4)C4CC4)c3)cc12 [Compound 4025] | < 0.1 | –
31 | CNC(=O)c1c(-c2ccc(F)cc2)oc2cc(N(CCCF)S(C)(=O)=O)c(-c3cccc(C(=O)NC(C)(C)C(C)(C)C)c3)cc12 [Compound 4026] | < 0.1 | –
32 | CNC(=O)c1c(-c2ccc(F)cc2)oc2cc(N(CCCF)S(C)(=O)=O)c(-c3cccc(C(=O)NC(C)(C)CCO)c3)cc12 [Compound 4027] | < 0.1 | –
33 | C#CC(CC)(CC)NC(=O)c1cccc(-c2cc3c(C(=O)NC)c(-c4ccc(F)cc4)oc3cc2N(CCCF)S(C)(=O)=O)c1 [Compound 4028] | < 0.1 | 0.0056
34 | C#CC(C)(CC)NC(=O)c1cccc(-c2cc3c(C(=O)NC)c(-c4ccc(F)cc4)oc3cc2N(CCCF)S(C)(=O)=O)c1 (stereo not drawn) [Compound 4029] | < 0.1 | 0.0059
35 | CNC(=O)c1c(-c2ccc(F)cc2)oc2cc(N(CCCF)S(C)(=O)=O)c(-c3cccc(C(=O)N[C@H](C)C(F)(F)F)c3)cc12 [Compound 4030] | < 0.1 | –
36 | CNC(=O)c1c(-c2ccc(F)cc2)oc2cc(NCCCF)c(-c3cccc(C(=O)NC(C)(C)C#N)c3)cc12 [Compound 5003] | < 0.1 | –
37 | CNC(=O)c1c(-c2ccc(F)cc2)oc2cc(NCCCF)c(-c3cccc(C(=O)NC(C)(C#N)C4CC4)c3)cc12 (stereo not drawn) [Compound 5004] | < 0.1 | –
38 | CNC(=O)c1c(-c2ccc(F)cc2)oc2cc(NCCCF)c(-c3cccc(C(=O)NC(C)(C)C(F)(F)F)c3)cc12 [Compound 5005] | < 0.1 | –
39 | CNC(=O)c1c(-c2ccc(F)cc2)oc2cc(NCCCF)c(-c3cccc(C(=O)NC(CF)(CF)CF)c3)cc12 [Compound 5006] | < 0.1 | 0.0094
40 | CNC(=O)c1c(-c2ccc(F)cc2)oc2cc(N(C(F)F)S(C)(=O)=O)c(-c3cccc(C(=O)OC)c3)cc12 [Compound 6001] | < 0.1 | –
41 | CNC(=O)c1c(-c2ccc(F)cc2)oc2cc(N(C(F)F)S(C)(=O)=O)c(-c3cccc(C(=O)O)c3)cc12 [Compound 6002] | > 1 | > 10
42 | CNC(=O)c1c(-c2ccc(F)cc2)oc2cc(N(C(F)F)S(C)(=O)=O)c(-c3cccc(C(=O)NC(C)(C)C(F)(F)F)c3)cc12 [Compound 6003] | < 0.1 | 0.0095
43 | CNC(=O)c1c(-c2ccc(F)cc2)oc2cc(N(C(F)F)S(C)(=O)=O)c(-c3cccc(C(=O)NC(C)(C)C#N)c3)cc12 [Compound 6004] | < 0.1 | –
44 | CNC(=O)c1c(-c2ccc(F)cc2)oc2cc(N(C(F)F)S(C)(=O)=O)c(-c3cccc(C(=O)NC(CF)(CF)CF)c3)cc12 [Compound 6005] | < 0.1 | –
45 | [2H]C([2H])([2H])C(NC(=O)c1cccc(-c2cc3c(C(=O)NC)c(-c4ccc(F)cc4)oc3cc2N(C(F)F)S(C)(=O)=O)c1)(C([2H])([2H])[2H])C([2H])([2H])[2H] [Compound 6006] | < 0.1 | –
46 | CNC(=O)c1c(-c2ccc(F)cc2)oc2cc(N(CC(F)F)S(C)(=O)=O)c(-c3cccc(C(=O)OC)c3)cc12 [Compound 7001] | < 0.1 | –
